Values quoted from earlier work in US20250375417A1, “OREXIN RECEPTOR 2 (OX2R) AGONIST FOR USE IN NARCOLEPSY TYPE 1 (NT1)” (TAKEDA PHARMACEUTICAL COMPANY LIMITED, priority 2024, published 2025).

Conditions: phase 2 clinical studies of firazorexton; cited from earlier work

CC(C)(O)C(=O)N1CC[C@H](NS(C)(=O)=O)[C@@H]1Cc1cccc(-c2cc(F)cc(F)c2)c1F [firazorexton]
Liver toxicity: liver toxicity was observed
